The record followed here is BindingDB's records for doi:10.1021/jm00075a013 (Ciba-Geigy, 1994).

The target of assay [1] is Arachidonate 5-lipoxygenase (Cavia porcellus). Nature of the assay: In vitro inhibitory activity against 5-lipoxygenase by reduction of LTB4 formed in guinea pig polymorphonuclear leukocytes (PMNs).
Assay [2] has the same target. Nature of the assay: In vitro inhibitory activity against 5-lipoxygenase by reduction of 5-hydroxyeicosatetraenoic acid (5-HETE) formed in guinea pig polymorphonuclear leukocytes (PMNs).
The target is the same in assay [3]. Described as above. This is another data set of the same source.
Assay [4] has as its target Thromboxane-A synthase (Homo sapiens) (UniProt P24557). Nature of the assay: Inhibitory concentration against human platelet thromboxane synthetase.

Some results are limits rather than exact numbers.

Chain of Thromboxane-A synthase (Homo sapiens) (P24557 whole entry, looked up): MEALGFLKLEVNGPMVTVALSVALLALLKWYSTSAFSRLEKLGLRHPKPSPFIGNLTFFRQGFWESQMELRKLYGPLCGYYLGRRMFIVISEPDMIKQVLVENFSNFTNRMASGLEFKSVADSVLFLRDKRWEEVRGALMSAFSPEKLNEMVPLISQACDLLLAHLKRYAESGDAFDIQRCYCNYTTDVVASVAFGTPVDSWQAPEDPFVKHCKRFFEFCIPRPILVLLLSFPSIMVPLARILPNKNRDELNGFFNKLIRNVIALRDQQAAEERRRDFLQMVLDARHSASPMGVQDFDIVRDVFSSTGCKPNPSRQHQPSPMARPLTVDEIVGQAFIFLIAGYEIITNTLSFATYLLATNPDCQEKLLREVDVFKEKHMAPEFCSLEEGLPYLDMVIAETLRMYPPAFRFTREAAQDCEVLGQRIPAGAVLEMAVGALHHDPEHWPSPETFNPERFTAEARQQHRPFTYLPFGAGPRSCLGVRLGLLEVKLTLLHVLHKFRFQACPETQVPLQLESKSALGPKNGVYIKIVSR

As to `NC(=S)N(O)CC1=Cc2cc(Oc3ccccc3)ccc2OC1` [N-hydroxy-N-[(6-phenoxy-2H-chromen-3-yl)methyl]thiourea], the figures for the IC50 in assay [1] and in assay [2] were 200 nM and 180 nM, respectively.
With `NC(=O)N(O)CC1=Cc2cc(-c3ccccc3)ccc2OC1` [N-hydroxy-N-[(6-phenyl-2H-chromen-3-yl)methyl]urea], the results for the IC50 in assay [3] and in assay [1] were 240 nM and 230 nM, respectively.
Regarding `NC(=O)N(O)CC1=Cc2cc(OCc3ccc(C(F)(F)F)cc3)ccc2OC1` [N-[6-(4-Trifluoromethyl-benzyloxy)-2H-chromen-3-ylmethyl]-hydroxylurea], the IC50 in assay [1] came out at 490 nM; in assay [2], 430 nM.
On to `C=CCNC(=O)N(O)CC1=Cc2cc(Oc3ccccc3)ccc2OC1` [N'-allyl-N-hydroxy-N-[(6-phenoxy-2H-chromen-3-yl)methyl]urea], for which the IC50 is 37 nM in assay [3] and 44 nM in assay [1].
In the case of `CNC(=O)N(O)CC1=Cc2cc(Oc3ccc(F)cc3)ccc2OC1` [N-{[6-(4-fluorophenoxy)-2H-chromen-3-yl]methyl}-N-hydroxy-N'-methylurea], the IC50 in assay [4] was more than 20000 nM.
Consider `CC1Oc2ccc(Oc3ccccc3)cc2C=C1CN(O)C(N)=O` (stereo not given) [N-hydroxy-N-[(2-methyl-6-phenyoxy-2H-chromen-3-yl)methyl]urea], for which the IC50 in assay [1] is 87 nM; in assay [2], 120 nM.
On to `NC(=O)N(O)CC1=Cc2cc(Br)ccc2OC1` [N-[(6-bromo-2H-chromen-3-yl)methyl]-N-hydroxyurea], for which the IC50 in assay [3] and in assay [1] was 1400 nM in each case.
`NC(=O)N(O)CC1=Cc2cc(Oc3ccccc3)ccc2OC1` [N-hydroxy-N-[(6-phenoxy-2H-chromen-3-yl)methyl]urea] returned an IC50 in assay [4] of more than 20000 nM.
`CCOC(=O)CNC(=O)N(O)CC1=Cc2cc(Oc3ccccc3)ccc2OC1` [ethyl [({hydroxy[(6-phenoxy-2H-chromen-3-yl)methyl]amino}carbonyl)amino]acetate]: the IC50 in assay [3] worked out at 68 nM; in assay [1], 74 nM.
Take `CC1(C)Oc2ccc(Oc3ccccc3)cc2C=C1CN(O)C(N)=O` [N-[(2,2-dimethyl-6-phenyoxy-2H-chromen-3-yl)methyl]-N-hydroxyurea]: the IC50 in assay [1] was determined as 440 nM; in assay [2], 310 nM.
As for `CC(C)NC(=O)N(O)CC1=Cc2cc(Oc3ccccc3)ccc2OC1` [N-hydroxy-N'-isopropyl-N-[(6-phenoxy-2H-chromen-3-yl)methyl]urea], the IC50 in assay [1] turned out to be 63 nM; in assay [2], 49 nM.
In assay [4], `CC(c1cc2ccccc2s1)N(O)C(N)=O` (racemic) [Leutrol] yielded an IC50 of more than 20000 nM.
`NC(=O)N(O)CC1=Cc2cc(OCc3ccccc3)ccc2OC1` [N-(6-Benzyloxy-2H-chromen-3-ylmethyl)-hydroxylurea]: the IC50 in assay [3] turned out to be 440 nM; in assay [1], 380 nM.
Regarding `NC(=O)N(O)CC1=Cc2cc(OCC3CCCCC3)ccc2OC1` [N-(6-Cyclohexylmethoxy-2H-chromen-3-ylmethyl)-hydroxylurea], the IC50 in assay [3] came out at 1360 nM; in assay [1], 1390 nM.
As for `CCCCCCOc1ccc2c(c1)C=C(CN(O)C(N)=O)CO2` [N-(6-Hexyloxy-2H-chromen-3-ylmethyl)-hydroxylurea], the IC50 is 340 nM in assay [1] and 280 nM in assay [2].
For `CCCCNC(=O)N(O)CC1=Cc2cc(Oc3ccccc3)ccc2OC1` [N-hydroxy-N-[(6-phenoxy-2H-chromen-3-yl)methyl]-N'-butylurea], the values for the IC50 in assay [3] and in assay [1] were 65 nM and 69 nM, respectively.
On to `NC(=O)N(O)CC1=Cc2cc(OCCCc3ccccc3)ccc2OC1`, for which the IC50 came out at 160 nM in assay [1] and 130 nM in assay [2].
Consider `CCCC1Oc2ccc(Oc3ccccc3)cc2C=C1CN(O)C(N)=O` (stereo not given) [N-hydroxy-N-[(6-phenyoxy-2-propyl-2H-chromen-3-yl)methyl]urea], for which the figures for the IC50 in assay [1] and in assay [2] were 870 nM and 880 nM, respectively.
As to `COc1ccc2c(c1)OCC(CN(O)C(N)=O)C2` (stereo not given) [N-hydroxy-N-[(7-methoxy-3,4-dihydro-2H-chromen-3-yl)methyl]urea], the half-maximal inhibitory concentration (IC50) in assay [1] and in assay [2] was more than 3000 nM throughout.

One may read the IC50 as the concentration that inhibits the measured activity by half. Low readings indicate greater potency, high ones weaker potency.
